The source of these data is PubChem BioAssay (NCI).

Holding throughout (assay): NCI anticancer screen, dose series, 48 h
The subject of experiment [1] is MDA-MB-435.
Experiment [2] has as its system SN12C renal.
The test system of experiment [3] is A549 NSCLC.
Experiment [4] relates to HCT-15 colon.
Experiment [5] has as its system T-47D breast.
The subject of experiment [6] is UO-31 renal.
Experiment [7] has as its system SK-OV-3 ovarian.
The test system of experiment [8] is SNB-75 CNS.
The test system of experiment [9] is NCI-H460 lung.
Experiment [10] has as its system OVCAR-3 ovarian.

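Interpolation was linear, between the two tested concentrations surrounding the appropriate level; five concentrations were tested over 48 hours in 96-well plates. GI50 = concentration required for 50% inhibition of growth. TGI: concentration producing complete growth inhibition.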

On to `N#C/C(=C\c1ccc(O)c(O)c1)C(=O)NCc1cccc(C(F)(F)F)c1`, for which the GI50 in experiment [1] was 4.28 µM; in experiment [2], 11.3 µM; in experiment [3], 15.1 µM; in experiment [4] it was 3.64 µM; in [5], 13.3 µM; in experiment [6] it was 11.8 µM. Moreover, the GI50 in experiment [7] is 24.1 µM; in [8], 13.6 µM; in experiment [9] it was 6.14 µM. Further, the TGI in experiment [1] came out at 18 µM; in [2], 31.1 µM; in experiment [3], 90 µM; in experiment [4], 46.3 µM; in experiment [5], 84.5 µM; in experiment [6], 73.9 µM. The values for the TGI in experiment [7], in experiment [8] and in experiment [9] were 75.6 µM, 59.2 µM and 31 µM, respectively.

Regarding `[CH3][Ge]([CH3])([CH2]CC#N)[S]c1ccccc1`, the GI50 in experiment [2] is 15.2 µM; in experiment [3], 2.19 µM; in experiment [10], 12.3 µM; in [4], 15 µM; in experiment [6] it was 10.5 µM; in [7] it was 21.7 µM. The GI50 is 23.4 µM in experiment [8] and 16.3 µM in experiment [9]. For the same compound, the TGI in experiment [2] is 31.6 µM; in experiment [3], over 100 µM; in experiment [10] it was 29.1 µM; in experiment [4] it was 28.2 µM; in [6], 22.3 µM; in experiment [7], 55.9 µM. Moreover, the TGI in experiment [8] was 74 µM; in experiment [9], 29.8 µM.

On to `N=C1C(c2nc3ccccc3c(=O)[nH]2)=C(O)CN1c1cccc(Cl)c1`, for which the GI50 in experiment [1] is 0.948 µM; in [2], 19.2 µM; in experiment [3], 5.36 µM; in [10] it was 2.15 µM; in experiment [4], 1.51 µM; in [6], 13.3 µM. Moreover, the values for the GI50 in experiment [7], in experiment [8] and in experiment [9] were 5.55 µM, 3.83 µM and 3.72 µM, respectively. For the same compound, the TGI in experiment [1] was 3.8 µM; in [2] it was over 100 µM; in experiment [3] it was over 100 µM; in experiment [10] it was 5.06 µM; in experiment [4], over 100 µM; in experiment [6], over 100 µM. For the same compound, the values for the TGI in experiment [7], in experiment [8] and in [9] were over 100 µM, over 100 µM and over 85.6 µM, respectively.

In the case of `CN1C(=O)[C@@H](CC2CCCC2)N(C2CCCC2)c2nc(Nc3cc(Cl)c(O)c(Cl)c3)ncc21`, the GI50 was 27.8 µM in experiment [1]; 21.4 µM in [2]; 22.1 µM in [3]; 21.8 µM in experiment [10]; 14.6 µM in [4]; 12.9 µM in [5]. In addition, the GI50 in [7] was 17.1 µM; in [9], 23.5 µM. The TGI in experiment [1] is over 100 µM; in [2], over 100 µM; in experiment [3], over 100 µM; in experiment [10], 73.9 µM; in [4], 56.2 µM; in experiment [5], 74.9 µM. Also, the TGI amounted to 75.9 µM in experiment [7] and 90.3 µM in [9].

Consider `CCCCN(CCCC)CC(C(=O)Nc1ccc([N+](=O)[O-])cc1[N+](=O)[O-])/C(C)=N\NC(=O)c1ccncc1` (configuration not stated), for which the TGI in experiment [2], in experiment [3], in [10], in experiment [4], in experiment [6] and in experiment [7] was over 100 µM each time. In addition, the TGI in experiment [8] and in [9] was over 100 µM in each case.

For the compound `Nc1nc2c(ncn2C2OC(CO)C(O)C2O)c(=O)o1` (configuration not stated), the TGI in experiment [2], in experiment [3], in experiment [10], in experiment [4], in experiment [6] and in experiment [7] was over 100 µM each time. The TGI in [8] and in experiment [9] was over 100 µM each time.

In the case of `O=C1C=C(Nc2cc(Cl)ccc2Cl)c2ccccc2C1=O`, the TGI in [2] is over 100 µM; in experiment [3], over 100 µM; in [10], 63.7 µM; in experiment [4], over 100 µM; in experiment [6], over 100 µM; in [7] it was over 100 µM. Also, the TGI in [8] came to 70.3 µM; in experiment [9] it was 88.9 µM.

Turning to `NC(=O)NC(=O)Nc1ccc(Br)cc1`, the TGI in experiment [1] is over 22 µM; in [2], over 100 µM; in experiment [3], over 100 µM; in [10], over 20.7 µM; in [4] it was over 65.4 µM; in experiment [5], over 100 µM. The TGI in [6] is over 100 µM; in experiment [7] it was over 100 µM; in [9] it was over 36.4 µM.

Turning to `Cc1ccc(/C=C(/C#N)n2nnc3cccc(F)c32)cc1`, the GI50 is 0.485 µM in experiment [2]; 0.696 µM in experiment [3]; 0.227 µM in experiment [10]; 0.24 µM in experiment [4]; 0.509 µM in experiment [5]; 0.515 µM in [6]. Besides, the GI50 is 0.931 µM in experiment [7], 0.212 µM in experiment [8] and 0.35 µM in [9]. In addition, the TGI was 12.8 µM in experiment [2]; 44.5 µM in experiment [3]; 0.536 µM in experiment [10]; 8.69 µM in [4]; over 100 µM in [5]; 11.7 µM in experiment [6]. In addition, the TGI was determined as 55.1 µM in [7], 0.623 µM in experiment [8] and 2.13 µM in experiment [9].

As for `c1ccc(-c2sc(-c3ccccc3)c3c2C(c2ccccc2)c2c(-c4ccccc4)sc(-c4ccccc4)c2C3c2ccccc2)cc1` (configuration not stated), the TGI in experiment [2], in [3], in experiment [10], in [4], in [6] and in experiment [7] was over 100 µM in each case. Moreover, the TGI in experiment [8] and in experiment [9] was over 100 µM throughout.
